In paper PMC5908134, “Saccharomyces cerevisiae as a platform for assessing sphingolipid lipid kinase inhibitors” (PLoS ONE, 2018):
“Also recorded” adds a separate entry of the source.

Key:
[1] = molecular target: T1, human SphK1 (Homo sapiens, UniProt Q9NYA1); assay: yeast growth rescue assay, strain KYA1 (PDR5 deleted) expressing human SphK1; format: cell-based
T1 construct: constructed by sub-cloning DNA encoding the indicated translational open reading frames into the pYES2-FLAG-URA expression vector; expressed in transfected cells; host or cells: Saccharomyces cerevisiae CBY169 or KYA1, plasmid pGAL-HsSPHK1
Text: (§1) The plasmids pGAL-HsSPHK1, pGAL-HsSPHK2, pGAL-MmSphk1, pGAL-MmSphk1L277M, pGAL-MmSphk2, pGAL-HsCERK and pGAL-SK2_MOD used in this study were constructed by sub-cloning DNA encoding the indicated translational open reading frames into the pYES2-FLAG-URA expression vector (provided by Dr. Cungui Mao). […] Excepting human and mouse SphK2, the DNA sequences are synthetic (from GeneWiz LLC (South Plainfield, NJ)) and were optimized for expression in S. cerevisiae.
(§2) Yeast harboring plasmids were selected and maintained on synthetic complete media lacking uracil (SC-URA) with 2% glucose as the fermentable carbon source. After overnight growth at 30°C in this media, the cultures were diluted 1:100 into SC-URA media supplemented with 2% galactose and various concentrations of test inhibitor. After a further 24–48 hours incubation at 30°C, the extent of growth was assessed by measuring absorbance at 600 nm. […] Tubes were incubated in a rotating drum while plates were agitated using a plate mixer. A600 for 96-well plate cultures was determined using a Molecular Devices SpectraMax M5 plate reader. Test compounds were dissolved in DMSO at 40–50 mM and diluted into water containing 0.1% fatty acid free bovine serum albumin. In all cases, the DMSO concentration in the assay was less than 2% (v/v).

[2] = molecular target: T2, mouse SphK2 (Mus musculus, UniProt Q9JIA7); assay: yeast growth rescue assay, mouse SphK2 (CBY169 and KYA1 strains); format: cell-based; settings: both the CBY169 and KYA1 strains
T2 sequence (Q9JIA7 1-617): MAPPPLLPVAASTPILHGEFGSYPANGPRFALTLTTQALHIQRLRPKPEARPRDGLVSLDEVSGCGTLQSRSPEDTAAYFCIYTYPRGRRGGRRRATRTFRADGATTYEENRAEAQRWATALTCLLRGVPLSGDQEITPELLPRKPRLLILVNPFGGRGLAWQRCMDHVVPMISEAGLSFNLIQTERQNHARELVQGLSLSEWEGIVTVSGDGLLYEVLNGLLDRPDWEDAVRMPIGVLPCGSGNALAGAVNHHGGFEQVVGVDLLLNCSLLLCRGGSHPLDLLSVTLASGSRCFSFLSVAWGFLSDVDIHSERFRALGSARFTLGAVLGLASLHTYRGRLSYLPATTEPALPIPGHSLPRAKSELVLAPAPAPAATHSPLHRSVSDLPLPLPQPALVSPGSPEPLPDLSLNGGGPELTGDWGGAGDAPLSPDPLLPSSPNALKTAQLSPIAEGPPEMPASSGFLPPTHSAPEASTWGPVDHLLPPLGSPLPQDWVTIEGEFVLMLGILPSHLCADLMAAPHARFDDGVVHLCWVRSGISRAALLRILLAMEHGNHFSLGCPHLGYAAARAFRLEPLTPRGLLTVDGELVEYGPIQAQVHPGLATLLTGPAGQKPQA
Text: as §1, §2

[3] = test system: yeast strain CBY169; assay: toxicity for yeast (growth of strains without lipid kinase expression)
Protocol: as §2
The salient limitations of the yeast assay are those of any cell-based assay. Namely, the assay reports EC50 values rather than Km, Vmax or kcat values of inhibitors, test compounds must not be markedly cytotoxic at the concentrations tested and compounds must accumulate to some extent in the yeast. Cytotoxicity is readily discerned by testing compounds for an effect on growth of strains without lipid kinase expression.

[4] = molecular target: T3, human SphK2 (Homo sapiens, UniProt Q9NRA0); assay: yeast growth rescue assay, strain CBY169 expressing human SphK2; format: cell-based
T3 construct: full length (wild type hSK2); expressed in transfected cells; host or cells: Saccharomyces cerevisiae CBY169 or KYA1, plasmid pGAL-HsSPHK2
T3 sequence (Q9NRA0 1-618 isoform Q9NRA0-2): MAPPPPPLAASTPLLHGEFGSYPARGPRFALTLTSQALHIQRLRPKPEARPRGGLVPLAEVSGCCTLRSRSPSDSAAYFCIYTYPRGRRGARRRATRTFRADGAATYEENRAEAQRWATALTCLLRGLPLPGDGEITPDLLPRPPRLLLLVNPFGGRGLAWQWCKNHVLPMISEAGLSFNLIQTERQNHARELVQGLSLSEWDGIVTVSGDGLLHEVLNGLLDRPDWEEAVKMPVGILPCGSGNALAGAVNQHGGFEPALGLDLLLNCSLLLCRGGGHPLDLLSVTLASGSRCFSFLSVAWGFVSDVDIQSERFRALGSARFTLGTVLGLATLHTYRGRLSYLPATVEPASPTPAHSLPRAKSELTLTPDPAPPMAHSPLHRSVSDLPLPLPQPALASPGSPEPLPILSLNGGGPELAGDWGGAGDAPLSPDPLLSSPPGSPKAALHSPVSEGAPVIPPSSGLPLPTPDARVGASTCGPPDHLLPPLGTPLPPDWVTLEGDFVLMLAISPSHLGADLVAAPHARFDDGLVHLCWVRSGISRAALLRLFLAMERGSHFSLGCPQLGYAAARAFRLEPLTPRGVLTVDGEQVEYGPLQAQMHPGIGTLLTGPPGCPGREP
Text: as §1

[5] = molecular target: T1, human SphK1; assay: yeast growth rescue assay, strain CBY169 expressing human SphK1; format: cell-based; settings: strain CBY169 expressing human SphK1
Text: as §1, §2

[6] = molecular target: T3, human SphK2; assay: yeast growth rescue assay, strain KYA1 (PDR5 deleted) expressing human SphK2; format: cell-based; settings: strain KYA1 expressing human SphK2
Text: The yeast strains used in this study include JS1256 (MATa his3Δ1 leu2Δ0 met15Δ0 ura3Δ0) and CBY169 (MATα leu2-3,112 ura3-52 his4 trp1 rme1 dpl1Δ::TRP1 lcb3Δ::LEU2 lcb4Δ::kanMX lcb5Δ::kanMX) (the latter provided by Kyle Cunningham). The CBY169 strain was modified further by replacement of the PDR5 gene with a selectable marker (confers resistance to clonat) to generate strain KYA1 (MATα leu2-3,112 ura3-52 his4 trp1 rme1 dpl1Δ::TRP1 lcb3Δ::LEU2 lcb4Δ::kanMX lcb5Δ::kanMX pdr5Δ::natMX).
The plasmids pGAL-HsSPHK1, pGAL-HsSPHK2, pGAL-MmSphk1, pGAL-MmSphk1L277M, pGAL-MmSphk2, pGAL-HsCERK and pGAL-SK2_MOD used in this study were constructed by sub-cloning DNA encoding the indicated translational open reading frames into the pYES2-FLAG-URA expression vector (provided by Dr. Cungui Mao). The encoded proteins all have an amino terminal FLAG epitope tag ([…]) and their expression is under the control of the GAL1,10 promoter. Excepting human and mouse SphK2, the DNA sequences are synthetic (from GeneWiz LLC (South Plainfield, NJ)) and were optimized for expression in S. cerevisiae.

T1 sequence (Q9NYA1 whole entry): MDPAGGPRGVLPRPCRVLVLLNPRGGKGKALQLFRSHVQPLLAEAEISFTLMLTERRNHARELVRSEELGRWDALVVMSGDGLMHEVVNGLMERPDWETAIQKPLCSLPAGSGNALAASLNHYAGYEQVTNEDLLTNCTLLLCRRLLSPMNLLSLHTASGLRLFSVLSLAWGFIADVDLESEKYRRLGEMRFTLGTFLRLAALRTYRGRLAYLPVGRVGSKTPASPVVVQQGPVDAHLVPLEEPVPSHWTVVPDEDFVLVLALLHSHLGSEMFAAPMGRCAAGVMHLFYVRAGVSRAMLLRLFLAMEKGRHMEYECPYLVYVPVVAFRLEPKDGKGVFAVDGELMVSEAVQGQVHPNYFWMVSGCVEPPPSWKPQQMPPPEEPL

**Q.** Which rescue of growth [1] does the source give for O=C(NCc1ccncc1)C12CC3CC(C1)CC(c1ccc(Cl)cc1)(C3)C2 [ABC294640] here?
**A.** failed to rescue growth

**Q.** And the “activity (rescue of growth)” value [2]?
**A.** failure to detect activity

**Q.** And the cytotoxicity for yeast [3]?
**A.** not cytotoxic

**Q.** What about the rescue of growth [4] of the same molecule?
**A.** failed to rescue growth; also recorded: failure to detect activity

**Q.** What about the “rescue of growth in galactose media” value [5] of the same molecule?
**A.** failed to rescue growth

**Q.** What about the rescue of growth [6] of the same molecule?
**A.** failed to rescue growth; also recorded: failure to detect activity

**Q.** And the rescue of growth ([6]; concentrations up to 100 μM)?
**A.** failed to rescue growth
